Results taken from PubChem BioAssay AID1963867 (Molecular Pharmacology Branch, DTP, NCI, 2024).

Test system: KRAS-mutant PDC tumor spheroid with HUVEC/MSC, viability
Assay: Anticancer human tumor 327498-153-R-J2-PDC patient-derived uterine carcinosarcoma cell line growth inhibition [KRAS2]
Conditions: for IC50: curve of first compound; for viability, T/C: stronger effect = lower value
Excerpt: Multicellular complex tumor spheroid response to RAS pathway inhibitors in combination with a targeted agents in patient-derived cell lines with oncogenic KRAS variants from multiple cancer types
A high-throughput screen of multi-cell type tumor spheroids was designed to identify active combinations of targeted small molecules and KRAS pathway inhibitors. Complex spheroids include a stromal component modeled by human endothelial cells (HUVEC) and fibroblasts modeled by human mesenchymal stem cells (MSCs). The concentration ranges selected for each drug and investigational agent were based upon clinically achievable concentrations if the clinical Cmax of the agent was known.
Compounds. The drugs and investigational agents: BI-3406 (NSC825286), BAY-293 (NSC824723), batoprotafib (TNO155; NSC825523), sotorasib (AMG 510; NSC818433), MRTX1257 (NSC819558), elimusertib (BAY 1895344; NSC800525), molibresib (GSK525762; NSC774829), temuterkib (LY3214996; NSC803410), venetoclax (NSC766270), alisertib (NSC759677), olaparib (NSC753686), talazoparib (NSC767125), erdafitinib (NSC781556), ipatasertib (NSC767898), cabozantinib (NSC761068), nintedanib (NSC756659), abemaciclib (NSC768073), docetaxel (NSC628503), trametinib (NSC758246), and sapanisertib (NSC764658) were obtained from the National Cancer Institute (NCI) Developmental Therapeutics Program Chemical Repository. The FDA-approved anticancer drug set is available from the Developmental Therapeutics Program. […] The stock solutions were prepared in dimethyl sulfoxide (DMSO, Sigma-Aldrich, St. Louis, MO, cat. D2650) at 800-fold the tested concentration and stored at -70 degrees C prior to their use. All drugs and investigational agents were tested over a range starting from a high concentration at or near the clinical Cmax and decreasing in half-log increments. If the clinical Cmax for an agent had not been determined, the highest concentration tested was 10 microM.
Cell Culture. All cells were maintained in an incubator at 37 degrees C and 5% CO2 with 95% humidity. The PDC lines were cultured according to standard operating procedures established by the NCI PDMR (https://pdmr.cancer.gov/sops/default.htm). Briefly, all PDCs were thawed and cultured in Matrigel-coated flasks prepared with a working solution of 1X Ham's F-12 nutrient mix, without supplementation (Invitrogen, Waltham, MA, cat. 11765054), 100 U/mL penicillin-streptomycin (Invitrogen, cat. 15140122), and 2.5% Matrigel (Corning Inc., Corning, NY, cat. 354248) for the first three passages. All PDCs were cultured in complete DMEM/F-12 media containing advanced DMEM/F-12 (Invitrogen, cat. 12634028), 4.9% defined fetal bovine serum, heat inactivated (HyClone Laboratories Inc., Logan, UT, cat. SH30070.03HI), 389 ng/mL hydrocortisone (Sigma-Aldrich, cat. H4001), 9.7 ng/mL human EGF recombinant protein (Invitrogen, cat. PHG0313), 23.4 microg/mL adenine (Sigma-Aldrich, cat. A2786), 97.3 U/mL penicillin-streptomycin (Invitrogen, cat. 15140122), 1.9 mM L-glutamine (Invitrogen, cat. 25030081), and 9.7 microM Y-27632 dihydrochloride (Tocris Bioscience, Bristol, United Kingdom, cat. 1254). The PDCs were cultured in complete DMEM/F12 media without 9.7 microM Y-27632 dihydrochloride for at least two passages prior to the screen. The established cell line HOP-62 was cultured in RPMI 1640 medium, HEPES (Invitrogen, cat. 22400105) with 10% defined fetal bovine serum (HyClone Laboratories Inc., cat. SH30070.03) and 2 mM L-glutamine (Invitrogen, cat. 25030081). The pooled donor HUVEC were cultured in endothelial cell growth medium 2 (PromoCell, Heidelberg, Germany, cat. C-22011) and the hMSC were cultured in mesenchymal stem cell growth medium 2 (PromoCell, cat. C-28009). For all experiments, HUVEC and hMSC were used at passages </=5, while the malignant cell lines were used at passages </=15. […]

[1] = second compound 0.1 µM, first compound 0.0316 µM
[2] = second compound 0.1 µM, first compound 0.1 µM
[3] = second compound 0.316 µM, first compound 0.0316 µM
[4] = second compound 0.316 µM, first compound 0.1 µM
[5] = second compound 1 µM, first compound 0.0316 µM
[6] = second compound 1 µM, first compound 0.1 µM
[7] = second compound 3.16 µM, first compound 0.0316 µM
[8] = second compound 3.16 µM, first compound 0.1 µM
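Further: spheroids exposed to agents for seven days before reading.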
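Wherever viability, T/C is given: 100% = DMSO vehicle wells so lower means fewer viable cells.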

CC1(C)CCC(CN2CCN(c3ccc(C(=O)NS(=O)(=O)c4ccc(NCC5CCOCC5)c([N+](=O)[O-])c4)c(Oc4cnc5[nH]ccc5c4)c3)CC2)=C(c2ccc(Cl)cc2)C1 + C=CC(=O)N1CCN(c2nc(=O)n(-c3c(C)ccnc3C(C)C)c3nc(-c4c(O)cccc4F)c(F)cc23)C(C)C1
IC50 (second compound 0.1 µM): 1300 nM
IC50 (second compound 0.316 µM): 1740 nM
IC50 (second compound 1 µM): 1580 nM
IC50 (second compound 3.16 µM): 1210 nM
IC50 (second compound 10 µM): < 31.6 nM
viability, T/C [1]: 65.7%
viability, T/C [2]: 61.1%
viability, T/C (second compound 0.1 µM, first compound 0.316 µM): 54%
viability, T/C (second compound 0.1 µM, first compound 1 µM): 57.4%
viability, T/C (second compound 0.1 µM, first compound 3.16 µM): 36.5%
viability, T/C (second compound 0.1 µM, first compound 10 µM): 1.21%
viability, T/C [3]: 57%
viability, T/C [4]: 54.5%
viability, T/C (second compound 0.316 µM, first compound 0.316 µM): 58.1%
viability, T/C (second compound 0.316 µM, first compound 1 µM): 57.5%
viability, T/C (second compound 0.316 µM, first compound 3.16 µM): 42.7%
viability, T/C (second compound 0.316 µM, first compound 10 µM): 6.41%
viability, T/C [5]: 60.7%
viability, T/C [6]: 55.2%
viability, T/C (second compound 1 µM, first compound 0.316 µM): 57.4%
viability, T/C (second compound 1 µM, first compound 1 µM): 52.2%
viability, T/C (second compound 1 µM, first compound 3.16 µM): 44.3%
viability, T/C (second compound 1 µM, first compound 10 µM): 1.34%
viability, T/C [7]: 52.6%
viability, T/C [8]: 53.5%
viability, T/C (second compound 3.16 µM, first compound 0.316 µM): 53.2%
viability, T/C (second compound 3.16 µM, first compound 1 µM): 52.6%
viability, T/C (second compound 3.16 µM, first compound 3.16 µM): 37.4%
viability, T/C (second compound 3.16 µM, first compound 10 µM): 0.58%
viability, T/C (second compound 10 µM, first compound 0.0316 µM): 43.2%
viability, T/C (second compound 10 µM, first compound 0.1 µM): 41.6%
viability, T/C (second compound 10 µM, first compound 0.316 µM): 37.8%
viability, T/C (second compound 10 µM, first compound 1 µM): 46.5%
viability, T/C (second compound 10 µM, first compound 3.16 µM): 10.5%
viability, T/C (second compound 10 µM, first compound 10 µM): 2.01%

CN(C)C/C=C/C(=O)Nc1cc2c(Nc3ccc(F)c(Cl)c3)ncnc2cc1O[C@H]1CCOC1 + C=CC(=O)N1CCN(c2nc(OCC3CCCN3C)nc3c2CCN(c2cccc4cccc(C)c24)C3)CC1CC#N
IC50 (second compound 0.0316 µM): > 100 nM
IC50 (second compound 0.1 µM): 22 nM
IC50 (second compound 0.316 µM): 2.29 nM
IC50 (second compound 1 µM): 2.8 nM
IC50 (second compound 3.16 µM): < 0.316 nM
viability, T/C (second compound 0.0316 µM, first compound 0.000316 µM): 88.8%
viability, T/C (second compound 0.0316 µM, first compound 0.001 µM): 80.8%
viability, T/C (second compound 0.0316 µM, first compound 0.00316 µM): 74.4%
viability, T/C (second compound 0.0316 µM, first compound 0.01 µM): 64.2%
viability, T/C (second compound 0.0316 µM, first compound 0.0316 µM): 66.5%
viability, T/C (second compound 0.0316 µM, first compound 0.1 µM): 61.4%
viability, T/C (second compound 0.1 µM, first compound 0.000316 µM): 62.9%
viability, T/C (second compound 0.1 µM, first compound 0.001 µM): 64.1%
viability, T/C (second compound 0.1 µM, first compound 0.00316 µM): 50.8%
viability, T/C (second compound 0.1 µM, first compound 0.01 µM): 53.7%
viability, T/C [1]: 48.4%
viability, T/C [2]: 47.5%
viability, T/C (second compound 0.316 µM, first compound 0.000316 µM): 66.8%
viability, T/C (second compound 0.316 µM, first compound 0.001 µM): 56.2%
viability, T/C (second compound 0.316 µM, first compound 0.00316 µM): 45.2%
viability, T/C (second compound 0.316 µM, first compound 0.01 µM): 44.8%
viability, T/C [3]: 50.2%
viability, T/C [4]: 45.1%
viability, T/C (second compound 1 µM, first compound 0.000316 µM): 56.3%
viability, T/C (second compound 1 µM, first compound 0.001 µM): 54.9%
viability, T/C (second compound 1 µM, first compound 0.00316 µM): 47%
viability, T/C (second compound 1 µM, first compound 0.01 µM): 49.1%
viability, T/C [5]: 43.6%
viability, T/C [6]: 44%
viability, T/C (second compound 3.16 µM, first compound 0.000316 µM): 1.53%
viability, T/C (second compound 3.16 µM, first compound 0.001 µM): 0.35%
viability, T/C (second compound 3.16 µM, first compound 0.00316 µM): 0.21%
viability, T/C (second compound 3.16 µM, first compound 0.01 µM): 1.34%
viability, T/C [7]: 0.49%
viability, T/C [8]: 0.3%
